According to patent US20260256792A1, “TREATMENT OF CHRONIC SPONTANEOUS URTICARIA BY ADMINISTERING (R)-2-[3-[4-AMINO-3-(2-FLUORO-4-PHENOXY-PHENYL)PYRAZOLO[3,4-D]PYRIMIDIN-1-YL]PIPERIDINE-1-CARBONYL]-4-METHYL-4-[4-(OXETAN-3-YL)PIPERAZIN-1-YL]PENT-2-ENENITRILE” (priority 2023, published 2026):

Tested on: moderate-to-severe chronic spontaneous urticaria (CSU)
Assay: Phase 2 CSU study: hives severity score over 7 days (HSS7)
Type: in vivo, human
Parameters: key to HSS7 Change from baseline, Median / HSS7, Median / HSS7, Max / HSS7 Change from baseline, Q1 / HSS7 Change from baseline, Q3 / HSS7 Change from baseline, Max: 7-day sum of daily hive scores, each 0 = none to 3 = >50 hives
Text: The study comprises a 12 week, randomized, double-blind, placebo-controlled, multi-center, dose-ranging efficacy and safety phase, followed by a 40 week open label extension (OLE) phase (see FIG. 1).
The study consists of three phases and an optional OLE phase.
The UAS is a validated PRO measure. The daily UAS is the sum of the daily Hive Severity Score (HSS, ranging from 0=None to 3=more than 50 hives) and the daily Itch Severity Score (ISS, ranging from 0=None to 3=intense), the 2 key urticaria signs and symptoms which are wheals and itch. The daily UAS scores range from 0 to 6 point/day. Daily UAS scores are summed over 7-day period to create the UAS7, ranging from 0 to 42, and are composed of the HSS7 and ISS7 components. […] Patients were to complete the UAS using the e-diary. The e-diary was to be used once daily on the same time of each day recording of participant's answers to the urticaria activity score over 7 days (UAS7) questionnaire. For participants who entered the OLE phase, their answers to the UAS7 questionnaire were also to be collected from Week 20 to Week24 and from Week 48 to Week 52.
The following secondary endpoints were to be analyzed using the same approach as for the primary endpoint: • Change from baseline in UAS7 at Week 4 • Change from baseline in UAS7 at Week 12 (for US and US reference countries) • Change from baseline in ISS7 at Week 12 (except US and US reference countries) • Change from baseline in HSS7 at Week 12

[1] = 400 mg BID, Week 11, ITT Population
[2] = 400 mg BID, Week 12, ITT population
[3] = 400 mg BID, Week 12, Omalizumab-Naïve Population
[4] = 400 mg QPM, Omalizumab-Naïve Population, last block under Week 12, double-blind period, WOCF imputation
[5] = 400 mg QPM, Week 1, ITT Population
[6] = 400 mg QPM, Week 1, Omalizumab-Naïve Population
[7] = 400 mg QPM, Week 2, ITT Population
[8] = 400 mg QPM, Week 2, Omalizumab-Naïve Population
[9] = 400 mg QPM, Week 3, ITT Population
[10] = 400 mg QPM, Week 3, Omalizumab-Naïve Population
[11] = 400 mg QPM, Week 4, ITT population
[12] = 400 mg QPM, Week 4, Omalizumab-Naïve Population
[13] = 400 mg QPM, Week 5, ITT Population
[14] = 400 mg QPM, Week 5, Omalizumab-Naïve Population
[15] = 400 mg QPM, Week 6, ITT Population
[16] = 400 mg QPM, Week 6, Omalizumab-Naïve Population
[17] = 400 mg QPM, Week 7, ITT Population
[18] = 400 mg QPM, Week 7, Omalizumab-Naïve Population
[19] = 400 mg QPM, Week 8, ITT population
[20] = 400 mg QPM, Week 8, Omalizumab-Naïve Population
[21] = 400 mg QPM, Week 9, ITT Population

## CC(C)(C=C(C#N)C(=O)N1CCC[C@@H](n2nc(-c3ccc(Oc4ccccc4)cc3F)c3c(N)ncnc32)C1)N1CCN(C2COC2)CC1 [rilzabrutinib, (R)-2-[3-[4-amino-3-(2-fluoro-4-phenoxy-phenyl)pyrazolo[3,4-d]pyrimidin-1-yl]piperidine-1-carbonyl]-4-methyl-4-[4-(oxetan-3-yl)piperazin-1-yl]pent-2-enenitrile]
[1]
  HSS7 % Change from baseline LS Mean (SE): −49.14 (7.06) %
  HSS7 Change difference for rilzabrutinib vs.placebo LS Mean (95% CI): −2.46 (−5.05, 0.13)
  HSS7 Change from baseline LS Mean (SE): −7.01 (0.99)
  HSS7 Postbaseline Mean (SD): 6.79 (7.06)
400 mg BID, Week 11, Omalizumab-Naïve Population
  HSS7 Postbaseline Mean (SD): 7.13 (7.07)
400 mg BID, Week 11, Omalizumab-Naïve Population with Outlier Removed from Analysis
  HSS7 Postbaseline Mean (SD): 7.13 (7.07)
[2]
  HSS7 % Change difference for rilzabrutinib vs.placebo LS Mean (95% CI): −19.13 %
  HSS7 % Change from baseline LS Mean (SE): −46.86 (7.34) %
  HSS7 Change difference for rilzabrutinib vs.placebo LS Mean (95% CI): −1.89 (−4.58, 0.80)
  HSS7 Change from baseline LS Mean (SE): −6.78 (1.02)
  HSS7 Postbaseline Mean (SD): 7.08 (7.32)
[3]
  HSS7 Change difference for rilzabrutinib vs.placebo LS Mean (95% CI): −2.12 (−4.97, 0.73)
  HSS7 Change from baseline LS Mean (SE): −6.52 (1.07)
  HSS7 Postbaseline Mean (SD): 7.52 (7.21)
400 mg BID, Week 12, Omalizumab-Naïve Population with Outlier Removed from Analysis
  HSS7 Postbaseline Mean (SD): 7.52 (7.21)
[4]
  HSS7, Max: 21.0
  HSS7, Min: 0.0
  HSS7 Change from baseline, Max: 1.5
  HSS7 Change from baseline, Mean (SD): −9.87 (8.34)
  HSS7 Change from baseline, Median: −12.00
  HSS7 Change from baseline, Min: −19.6
  HSS7 Change from baseline, Q1: −18.00
  HSS7 Change from baseline, Q3: 0.00
  HSS7 Percent change from baseline, Max: 9.4%
  HSS7 Percent change from baseline, Mean (SD): −64.85 (48.75) percent
  HSS7 Percent change from baseline, Median: −93.33%
  HSS7 Percent change from baseline, Q1: −100.00%
  HSS7 Percent change from baseline, Q3: 0.00%
[5]
  HSS7 % Change difference for rilzabrutinib vs.placebo LS Mean (95% CI): −16.53 %
  HSS7 % Change from baseline LS Mean (SE): −25.22 (5.61) %
  HSS7 Change difference for rilzabrutinib vs.placebo LS Mean (95% CI): −2.14 (−4.59, 0.31)
  HSS7 Change from baseline LS Mean (SE): −3.98 (0.76)
  HSS7 Postbaseline Mean (SD): 10.76 (4.83)
[6]
  HSS7 % Change difference for rilzabrutinib vs.placebo LS Mean (95% CI): −17.05 %
  HSS7 % Change from baseline LS Mean (SE): −24.49 (5.76) %
  HSS7 Change difference for rilzabrutinib vs.placebo LS Mean (95% CI): −2.16 (−4.69, 0.37)
  HSS7 Change from baseline LS Mean (SE): −3.79 (0.77)
  HSS7 Postbaseline Mean (SD): 10.73 (4.90)
400 mg QPM, Week 1, Omalizumab-Naïve Population with Outlier Removed from Analysis
  HSS7 Postbaseline Mean (SD): 10.73 (4.90)
[7]
  HSS7 % Change difference for rilzabrutinib vs.placebo LS Mean (95% CI): −7.67 (−23.03, 7.68) %
  HSS7 % Change from baseline LS Mean (SE): −24.23 (5.75) %
  HSS7 Change difference for rilzabrutinib vs.placebo LS Mean (95% CI): −0.95 (−3.07, 1.17)
  HSS7 Change from baseline LS Mean (SE): −3.87 (0.80)
  HSS7 Postbaseline Mean (SD): 10.96 (4.91)
[8]
  HSS7 % Change difference for rilzabrutinib vs.placebo LS Mean (95% CI): −8.35 (−24.24, 7.54) %
  HSS7 % Change from baseline LS Mean (SE): −23.62 (5.84) %
  HSS7 Postbaseline Mean (SD): 10.90 (4.97)
400 mg QPM, Week 2, Omalizumab-Naïve Population with Outlier Removed from Analysis
  HSS7 Postbaseline Mean (SD): 10.90 (4.97)
[9]
  HSS7 % Change difference for rilzabrutinib vs.placebo LS Mean (95% CI): −9.55 (−25.43, 6.33) %
  HSS7 % Change from baseline LS Mean (SE): −28.70 (5.96) %
  HSS7 Change difference for rilzabrutinib vs.placebo LS Mean (95% CI): −0.94 (−3.15, 1.28)
  HSS7 Change from baseline LS Mean (SE): −4.44 (0.83)
  HSS7 Postbaseline Mean (SD): 10.40 (4.90)
[10]
  HSS7 % Change difference for rilzabrutinib vs.placebo LS Mean (95% CI): −10.40 %
  HSS7 % Change from baseline LS Mean (SE): −28.10 (6.12) %
  HSS7 Postbaseline Mean (SD): 10.41 (4.97)
400 mg QPM, Week 3, Omalizumab-Naïve Population with Outlier Removed from Analysis
  HSS7 Postbaseline Mean (SD): 10.41 (4.97)
[11]
  HSS7 % Change difference for rilzabrutinib vs.placebo LS Mean (95% CI): −7.88 (−24.05, 8.29) %
  HSS7 % Change from baseline LS Mean (SE): −26.58 (6.02) %
  HSS7 Change difference for rilzabrutinib vs.placebo LS Mean (95% CI): −0.78 (−3.03, 1.46)
  HSS7 Change from baseline LS Mean (SE): −4.23 (0.84)
[12]
  HSS7 % Change difference for rilzabrutinib vs.placebo LS Mean (95% CI): −10.20 %
  HSS7 % Change from baseline LS Mean (SE): −26.07 (6.19) %
[13]
  HSS7 % Change difference for rilzabrutinib vs.placebo LS Mean (95% CI): −2.80 %
  HSS7 % Change from baseline LS Mean (SE): −31.95 (5.91) %
  HSS7 Change difference for rilzabrutinib vs.placebo LS Mean (95% CI): −0.33 (−2.64, 1.97)
  HSS7 Change from baseline LS Mean (SE): −4.97 (0.86)
  HSS7 Postbaseline Mean (SD): 9.59 (5.07)
[14]
  HSS7 % Change difference for rilzabrutinib vs.placebo LS Mean (95% CI): −0.56 %
  HSS7 % Change from baseline LS Mean (SE): −31.12 (6.01) %
  HSS7 Postbaseline Mean (SD): 9.63 (5.13)
400 mg QPM, Week 5, Omalizumab-Naïve Population with Outlier Removed from Analysis
  HSS7 Postbaseline Mean (SD): 9.63 (5.13)
[15]
  HSS7 % Change difference for rilzabrutinib vs.placebo LS Mean (95% CI): −7.12 %
  HSS7 % Change from baseline LS Mean (SE): −31.19 (6.73) %
  HSS7 Change difference for rilzabrutinib vs.placebo LS Mean (95% CI): −0.50 (−3.00, 2.00)
  HSS7 Change from baseline LS Mean (SE): −4.76 (0.93)
  HSS7 Postbaseline Mean (SD): 9.89 (5.69)
[16]
  HSS7 % Change difference for rilzabrutinib vs.placebo LS Mean (95% CI): −6.27 %
  HSS7 % Change from baseline LS Mean (SE): −30.30 (6.90) %
  HSS7 Postbaseline Mean (SD): 9.94 (5.76)
400 mg QPM, Week 6, Omalizumab-Naïve Population with Outlier Removed from Analysis
  HSS7 Postbaseline Mean (SD): 9.94 (5.76)
[17]
  HSS7 % Change difference for rilzabrutinib vs.placebo LS Mean (95% CI): −5.92 %
  HSS7 % Change from baseline LS Mean (SE): −29.88 (6.15) %
  HSS7 Change difference for rilzabrutinib vs.placebo LS Mean (95% CI): −0.53 (−2.87, 1.81)
  HSS7 Change from baseline LS Mean (SE): −4.61 (0.88)
  HSS7 Postbaseline Mean (SD): 10.38 (5.19)
[18]
  HSS7 % Change difference for rilzabrutinib vs.placebo LS Mean (95% CI): −3.82 %
  HSS7 % Change from baseline LS Mean (SE): −29.51 (6.35) %
  HSS7 Postbaseline Mean (SD): 10.43 (5.27)
400 mg QPM, Week 7, Omalizumab-Naïve Population with Outlier Removed from Analysis
  HSS7 Postbaseline Mean (SD): 10.43 (5.27)
[19]
  HSS7 % Change difference for rilzabrutinib vs.placebo LS Mean (95% CI): −1.88 %
  HSS7 % Change from baseline LS Mean (SE): −30.95 (6.43) %
  HSS7 Change difference for rilzabrutinib vs.placebo LS Mean (95% CI): 0.11 (−2.37, 2.59)
  HSS7 Change from baseline LS Mean (SE): −4.64 (0.93)
  HSS7 Postbaseline Mean (SD): 10.43 (5.63)
[20]
  HSS7 % Change difference for rilzabrutinib vs.placebo LS Mean (95% CI): −2.41 %
  HSS7 % Change from baseline LS Mean (SE): −30.42 (6.75) %
[21]
  HSS7 % Change difference for rilzabrutinib vs.placebo LS Mean (95% CI): −10.31 %
  HSS7 % Change from baseline LS Mean (SE): −34.23 (6.69) %
  HSS7 Change difference for rilzabrutinib vs.placebo LS Mean (95% CI): −0.94 (−3.47, 1.59)
  HSS7 Change from baseline LS Mean (SE): −5.06 (0.95)
  HSS7 Postbaseline Mean (SD): 9.77 (5.51)
400 mg QPM, Week 9, Omalizumab-Naïve Population
  HSS7 Postbaseline Mean (SD): 9.82 (5.59)
400 mg QPM, Week 9, Omalizumab-Naïve Population with Outlier Removed from Analysis
  HSS7 Postbaseline Mean (SD): 9.82 (5.59)
